Measurements taken from PMC5557986 (Scientific Reports, 2017).

Tests used:
[1] = target: A/RI/5+/1957(H2N2) NA (N2) (Influenza A virus, UniProt Q194T1); assay: biochemical; assay type: biochemical, influenza A/RI/5+/1957(H2N2)
[2] = target: Clostridium perfringens NanJ NA (CpNA) (Clostridium perfringens, UniProt A0A0H2YT71); assay type: biochemical
[3] = tested on: Streptococcus 6646K NA (StrepNA); assay type: biochemical
N2 = settings: cited from earlier work
influenza NA = settings: cited from earlier work

Clostridium perfringens NanJ NA (CpNA), sequence (A0A0H2YT71 27-1173 limits assumed): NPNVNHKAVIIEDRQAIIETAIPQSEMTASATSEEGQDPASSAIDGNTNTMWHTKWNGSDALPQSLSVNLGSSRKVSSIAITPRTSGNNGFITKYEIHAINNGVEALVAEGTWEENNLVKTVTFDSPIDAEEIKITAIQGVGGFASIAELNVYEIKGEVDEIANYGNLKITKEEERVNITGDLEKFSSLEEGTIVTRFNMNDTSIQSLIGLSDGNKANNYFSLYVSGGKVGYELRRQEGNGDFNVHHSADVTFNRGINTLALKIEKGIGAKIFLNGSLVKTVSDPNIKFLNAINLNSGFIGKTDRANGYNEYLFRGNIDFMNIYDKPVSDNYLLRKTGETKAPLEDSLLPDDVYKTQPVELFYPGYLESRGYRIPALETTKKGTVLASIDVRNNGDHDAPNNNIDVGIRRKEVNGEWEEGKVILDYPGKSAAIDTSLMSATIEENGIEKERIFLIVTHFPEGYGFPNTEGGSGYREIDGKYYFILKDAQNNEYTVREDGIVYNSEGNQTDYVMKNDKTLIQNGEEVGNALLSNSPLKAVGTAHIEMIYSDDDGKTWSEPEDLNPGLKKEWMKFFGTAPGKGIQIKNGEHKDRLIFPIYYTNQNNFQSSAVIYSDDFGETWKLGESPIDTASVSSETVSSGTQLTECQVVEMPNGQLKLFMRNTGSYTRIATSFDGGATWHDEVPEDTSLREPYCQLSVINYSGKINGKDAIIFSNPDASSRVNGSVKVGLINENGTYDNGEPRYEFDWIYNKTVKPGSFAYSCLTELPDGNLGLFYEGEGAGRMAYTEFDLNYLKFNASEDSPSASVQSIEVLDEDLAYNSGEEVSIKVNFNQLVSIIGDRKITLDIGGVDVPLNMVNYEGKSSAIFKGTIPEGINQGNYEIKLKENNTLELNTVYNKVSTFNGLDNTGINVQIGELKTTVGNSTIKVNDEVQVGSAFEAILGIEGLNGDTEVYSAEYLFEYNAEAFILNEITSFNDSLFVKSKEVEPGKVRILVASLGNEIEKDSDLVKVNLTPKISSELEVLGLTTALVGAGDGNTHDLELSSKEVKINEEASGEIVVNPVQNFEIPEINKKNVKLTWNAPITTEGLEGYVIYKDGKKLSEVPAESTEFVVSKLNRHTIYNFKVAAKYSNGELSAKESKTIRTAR

Row | Compound | IC50 [1] [µM] | Ki [1] [µM] | inhibition of influenza NA (influenza NA) | also measured
1 | CC(=O)N[C@H]1[C@H]([C@H](O)[C@H](O)CO)O[C@H](S(=O)(=O)O)C[C@@H]1O [7a, 4-Acetamido-1-sulfo-1,2,4-trideoxy-D-glycero-D-galacto-octopyranose] | 8.86 | 2.47 | – | potency for inhibition of influenza N2 relative to eqPO3H [1]: 40 fold; potency for CpNA inhibition relative to eqPO3H [2]: 8.5 fold; IC50 ([2]; read-out: CpNA IC50): 37.5 µM; IC50 [3]: 3.74 µM
2 | CC(=O)N[C@H]1[C@H]([C@H](O)[C@H](O)CO)O[C@@H](S(=O)(=O)O)C[C@@H]1O [7b, 4-Acetamido-1-sulfo-1,2,4-trideoxy-D-glycero-D-galacto-octopyranose] | 120 | 33.5 | – | –
3 | CC(=O)N[C@@H]1C=C[C@H](S(=O)(=O)O)O[C@H]1[C@H](O)[C@H](O)CO [8b, 4-Acetamido-1-sufo-2,3-didehydro-1,2,3,4-tetradeoxy-D-glycero-D-galacto-octopyranose] | 316 | 88.1 | – | –
4 | CC(=O)N[C@H]1[C@H]([C@H](O)[C@H](O)CO)OC(C(=O)O)=C[C@@H]1O [Neu4Ac2en, 2,3-dehydro-2-deoxy-N-acetylneuraminic acid] | – | – | – | IC50 (N2): 19 µM
5 | [H]/N=C(\N)N[C@H]1C=C(C(=O)O)O[C@@H]([C@H](OC)[C@H](O)CO)[C@@H]1NC(C)=O [laninamivir] | – | – | low nanomolar level | –
6 | CCOC(=O)C1=C[C@@H](OC(CC)CC)[C@H](NC(C)=O)[C@@H](N)C1 [oseltamivir] | – | – | low nanomolar level | –
7 | CC(=O)N[C@H]1[C@H]([C@H](O)[C@H](O)CO)OC(C(=O)O)=C[C@@H]1N=C(N)N [zanamivir] | – | – | low nanomolar level | –
8 | peramivir | – | – | low nanomolar level | –
